Experimental data taken from ChEMBL document CHEMBL4229545, “Oximes short-acting CB1 receptor agonists” (Bioorg Med Chem, 2018).

What was measured:
Cannabinoid receptor 1 [1] = target: T1, Cannabinoid receptor 1 (Rattus norvegicus, UniProt P20272); assay: Displacement of [3H]CP-55,940 from rat brain Cb1 receptor
Cannabinoid receptor 2 [2] = target: Cannabinoid receptor 2 (Mus musculus, UniProt P47936); assay: Displacement of [3H]CP-55,940 from recombinant mouse Cb2 receptor expressed in HEK293 cells; type: cell-based
Cannabinoid receptor 2 [3] = target: T2, Cannabinoid receptor 2 (Homo sapiens, UniProt P34972); assay: Displacement of [3H]CP-55,940 from recombinant human Cb2 receptor expressed in HEK293 cells; type: cell-based
Cannabinoid receptor 1 [4] = target: T1, Cannabinoid receptor 1; assay: Agonist activity at recombinant rat Cb1 receptor expressed in HEK293 cells assessed as inhibition of forskolin-stimulated cAMP levels; type: functional, cell-based; conditions: read-out: EC50
Cannabinoid receptor 2 [5] = target: T2, Cannabinoid receptor 2; assay: Agonist activity at recombinant human Cb2 receptor expressed in HEK293 cells assessed as inhibition of forskolin-stimulated cAMP levels; type: functional, cell-based; conditions: read-out: EC50
[6] = target: Cannabinoid receptor 1 (Rattus norvegicus) (UniProt P20272); assay: Agonist activity at recombinant rat Cb1 receptor expressed in HEK293 cells assessed as inhibition of forskolin-stimulated cAMP levels relative to control; type: functional, cell-based
Cannabinoid receptor 2 [7] = target: T2, Cannabinoid receptor 2; assay: Agonist activity at recombinant human Cb2 receptor expressed in HEK293 cells assessed as inhibition of forskolin-stimulated cAMP levels relative to CP-55940; type: functional, cell-based

T2 sequence (P34972 whole entry): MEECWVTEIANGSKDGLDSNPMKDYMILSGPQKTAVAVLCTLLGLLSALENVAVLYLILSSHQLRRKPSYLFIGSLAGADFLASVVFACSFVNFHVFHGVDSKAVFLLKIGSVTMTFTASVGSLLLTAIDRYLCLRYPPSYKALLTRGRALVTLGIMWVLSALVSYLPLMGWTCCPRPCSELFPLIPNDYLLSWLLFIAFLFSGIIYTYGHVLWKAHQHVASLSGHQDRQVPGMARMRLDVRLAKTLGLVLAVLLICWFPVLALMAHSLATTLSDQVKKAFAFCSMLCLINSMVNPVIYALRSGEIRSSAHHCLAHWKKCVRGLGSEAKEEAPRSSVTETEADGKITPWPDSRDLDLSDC
Cannabinoid receptor 2 (Mus musculus, UniProt P47936), sequence (P47936 whole entry): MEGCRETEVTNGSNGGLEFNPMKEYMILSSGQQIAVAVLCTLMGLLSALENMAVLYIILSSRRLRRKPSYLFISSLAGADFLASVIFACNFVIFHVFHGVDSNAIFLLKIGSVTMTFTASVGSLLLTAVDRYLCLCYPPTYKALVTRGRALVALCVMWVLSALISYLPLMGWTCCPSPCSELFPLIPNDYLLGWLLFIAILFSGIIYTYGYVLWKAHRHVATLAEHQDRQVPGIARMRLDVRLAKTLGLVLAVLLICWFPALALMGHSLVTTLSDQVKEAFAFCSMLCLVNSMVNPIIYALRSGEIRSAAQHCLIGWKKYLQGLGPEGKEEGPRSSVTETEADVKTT
Cannabinoid receptor 1 (Rattus norvegicus), sequence (P20272 whole entry): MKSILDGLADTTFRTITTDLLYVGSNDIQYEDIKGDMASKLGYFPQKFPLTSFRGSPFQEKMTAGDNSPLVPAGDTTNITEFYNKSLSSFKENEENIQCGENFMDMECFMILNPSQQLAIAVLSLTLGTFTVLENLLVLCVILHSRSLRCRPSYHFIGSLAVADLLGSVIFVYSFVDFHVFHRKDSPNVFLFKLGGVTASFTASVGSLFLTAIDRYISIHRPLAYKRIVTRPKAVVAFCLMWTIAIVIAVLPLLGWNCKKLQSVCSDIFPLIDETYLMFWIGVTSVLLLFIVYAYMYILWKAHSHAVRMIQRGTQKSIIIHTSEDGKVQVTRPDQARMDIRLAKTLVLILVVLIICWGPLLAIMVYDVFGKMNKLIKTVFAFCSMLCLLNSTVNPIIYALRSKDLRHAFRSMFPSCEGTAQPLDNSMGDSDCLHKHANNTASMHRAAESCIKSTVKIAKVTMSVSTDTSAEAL
T1 sequence (P20272 whole entry): as above

Row | Structure (SMILES) | Ki (Cannabinoid receptor 1 [1]) [nM] | Ki (Cannabinoid receptor 2 [2]) [nM] | Ki (Cannabinoid receptor 2 [3]) [nM] | EC50 (Cannabinoid receptor 1 [4]) [nM] | EC50 (Cannabinoid receptor 2 [5]) [nM] | Emax [6] [%] | Emax (Cannabinoid receptor 2 [7]) [%]
1 | CCO/N=C(\C)c1cc(O)c2c(c1)OC(C)(C)[C@H]1CC=C(C)C[C@H]21 | 66.1 | 74.8 |  |  |  |  | 
2 | CCCCO/N=C(\C)c1cc(O)c2c(c1)OC(C)(C)[C@H]1CC=C(C)C[C@H]21 | 3.4 | 1.6 | 16.9 | 0.58 | 9.14 | 51 | 116
3 | CC1=CC[C@H]2[C@H](C1)c1c(O)cc(/C(C)=N/OCCN3CCCCC3)cc1OC2(C)C | 5.6 | 4.1 | 2.5 | 12.7 | 65.7 | 31 | 147
4 | CC1=CC[C@H]2[C@H](C1)c1c(O)cc(/C(C)=N/OCCN3CCCC3)cc1OC2(C)C | 6.6 | 6.7 | 8.4 |  |  |  | 
5 | CC1=CC[C@H]2[C@H](C1)c1c(O)cc(/C(C)=N/OCCCn3ccnc3)cc1OC2(C)C | 1.2 | 1.5 | 3.7 |  |  |  | 
6 | CCCCCCC(C)(C)c1cc(O)c2c(c1)OC(C)(C)[C@H]1CC=C(C)C[C@H]21 | 0.77 | 3.2 | 9 |  |  |  | 
7 | CC1=CC[C@H]2[C@H](C1)c1c(O)cc(/C(C)=N/OCCCc3ccccc3)cc1OC2(C)C | 3 | 3.8 | 2.7 | 2.6 | 1.65 | 27 | 35
8 | CCCCCc1cc(O)c2c(c1)OC(C)(C)[C@H]1CC=C(C)C[C@H]21 |  | 40.4 |  |  |  |  | 
9 | CC1=CC[C@H]2[C@H](C1)c1c(O)cc(/C(C)=N/OCCN3CCOCC3)cc1OC2(C)C | 7 | 1.8 | 0.7 |  |  |  | 
